According to PMC2132602 (The Journal of Cell Biology, 1998):

Target: T1, RPK (Ripped Pocket) (Drosophila melanogaster, UniProt Q7KTQ9)
T1 sequence (Q7KTQ9 1-562): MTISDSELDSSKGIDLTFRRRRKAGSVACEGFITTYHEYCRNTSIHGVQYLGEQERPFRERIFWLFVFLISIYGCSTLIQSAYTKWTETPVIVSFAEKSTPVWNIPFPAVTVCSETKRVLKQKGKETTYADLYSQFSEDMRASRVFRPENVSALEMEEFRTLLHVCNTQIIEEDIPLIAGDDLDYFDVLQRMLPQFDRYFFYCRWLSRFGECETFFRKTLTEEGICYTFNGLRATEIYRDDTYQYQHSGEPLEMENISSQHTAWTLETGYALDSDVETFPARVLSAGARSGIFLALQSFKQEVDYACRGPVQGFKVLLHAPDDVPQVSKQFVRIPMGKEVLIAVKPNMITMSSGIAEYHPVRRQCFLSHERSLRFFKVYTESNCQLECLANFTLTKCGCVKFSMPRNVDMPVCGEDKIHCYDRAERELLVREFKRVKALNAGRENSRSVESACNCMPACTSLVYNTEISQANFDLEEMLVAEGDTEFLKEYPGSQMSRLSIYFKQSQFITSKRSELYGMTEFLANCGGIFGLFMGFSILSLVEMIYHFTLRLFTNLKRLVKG
Test: two-electrode voltage clamp, Xenopus oocytes, dose-response of Na+ current block
Type: cell-based

IC50: 9 ± 0.1 µM
Compound: N=C(N)NC(=O)c1nc(Cl)c(N)nc1N [amiloride]
